Data as given in publication PMC7083851, “Extended pharmacodynamic responses observed upon PROTAC-mediated degradation of RIPK2” (Communications Biology, 2020).
pIC50: −log10 of the molar value. Several values for one entry are separate records, joined by “and”; a condition that tells them apart may be missing. Equal entries are not always repeated.

Tests used:
[1] = biological target: T1, XIAP (Homo sapiens, UniProt P98170); experiment: XIAP levels in human PBMCs, 24 h, capillary immunoassay; type: cell-based; details: up to 1uM
T1 construct: endogenous in cells; host or cells: primary human PBMCs
Procedure: Where the assessment of cytokines was performed, L18-MDP was added to the cell culture media (1 μg/ml) or to the rat blood samples (100 ng/ml) and samples were incubated for up to 4 h. For human blood, 250 ng/ml MDP (Invivogen) was added following compound treatment and the samples were further incubated for 5 h. Samples were them spun down at 1000 g and the cell culture supernatant, plasma or serum were collected for cytokines assessment, while cell pellets were used for RIPK2 and/or cIAP1, cIAP2, and XIAP levels analysis via immunoblotting.
Simple Western immunoassay: Cell lysates were mixed with 5× concentrated master mix (Protein Simple) and denatured at 95 °C on a heat block for 5 min together with the provided ladder (Protein Simple). Antibodies were diluted in the provided buffer as following: anti-RIPK2 (1:10 or 1:50), anti-cIAP1(1:10), anti-cIAP2 (1:10), anti-XIAP (1:10), mouse anti-β-actin (Abcam - 1:1000), rabbit anti-β-actin (Abcam - 1:50) and anti-vinculin (1:100). […] All samples were analyzed using the associated Compass software 3.1.7. […]
Cell viability was assessed by using Cell Titer
Kit (Promega) according to the manufacturer’s instructions. Samples were analysed using […]

[2] = test system: L18-MDP-induced cytokine release; experiment: In vivo L18-MDP acute inflammation model, distal colon cytokines; set-up: species or system rat; key to cytokine level (fig 6g) / cytokine level (fig 6h) / cytokine level (fig 6i): cytokine concentration in pg/ml (MSD U-Plex); details: for cytokine level (fig 6g) / cytokine level (fig 6i) / cytokine level (fig 6h): distal colon, individual rats, beside L18-MDP control
Procedure: Cytokine levels were determined in serum generated from the terminal blood samples and in tissue lysates as detailed below.
(§1) Cytokine measurement assay: Cytokine levels were measured in rat plasma or rat PBMCs cell culture supernatants using rat V-Plex TNFα, in human plasma or human PBMCs cell culture supernatants with either TNFα tissue culture or 7-plex kit. Rat serum and tissues samples from the in vivo L18-MDP acute inflammation model were analyzed using the rat TNFα, Il-6 and IL-8 U-Plex kits. All kits provided by Meso Scale Discovery (MSD). Levels of cytokines spontaneously released from human colon biopsies cell culture supernatants were measured using Human IL-1 beta/IL-1F2 DuoSet ELISA (Bio-techne), Human IL-6 ELISA (Immunotools) and Human TNF-alpha DuoSet ELISA (Bio-techne). All samples were processed accordingly to the manufacturer’s instructions. The MSD plates were analyzed using the MSD sector imager 6000 plate reader and cytokines concentration (pg/ml) was obtained by using the MSD DISCOVERY WORKBENCH software version 4.0.12.1

[3] = biological target: T2, RIPK2 (Rattus norvegicus, UniProt G3V783); experiment: RIPK2 levels in colon of dosed rats (Western blot); type: in vivo; details: for RIPK2 level in colon (fig 5f): vehicle control 0.0136-0.0240
T2 construct: from tissue; host or cells: terminal colon samples of dosed rats
Procedure: Rat PK/PD studies: On arrival, all rats were housed in a plastic solid bottom cage in groups of 2–3 with access to food and water ad libitum and under a 12 h light–dark cycle. Male CD or Wistar Han rats (7–9 weeks old, Charles River UK Ltd.) were randomly allocated to treatment groups upon arrival. Female CD rats (7–8 weeks old on arrival, Charles River Ltd.) were placed into groups using a randomization schedule based on body weight prior to the study start. All animals were acclimatized for a minimum of one week prior to the experiment commencing.
Ex vivo stimulation of rat blood with L18-MDP for PD: PPD blood samples taken prior to PROTAC administration or at fixed timepoints post PROTAC administration through the course of the study, were treated ex vivo with 100 ng/mL L18-MDP (Invivogen) or vehicle (0.1% DMSO) and incubated for 4 h. Following centrifugation, plasma was collected for cytokines analysis as detailed in cytokines assay section. Additionally, RIPK2 levels were determined in PBMCs isolated from blood and where collected, in sampled colon tissue as described in the text.
For in vivo studies, RIPK2:tubulin ratios and cytokine levels from each individual experiment were analysed either using a One-way ANOVA with Dunnet’s post-test or a two way ANOVA using GraphPad Prism 5.0.4 to determine statistical significance with 95% confidence levels.

[4] = test system: spontaneous IL-1β, IL-6, and TNFα release; experiment: Spontaneous cytokine release (IL-1β, IL-6, TNFα) from ulcerative colitis patient intestinal biopsies; type: cell-based, human; details: for IL-1b (Ctrl=DMSO = 100) / IL-6 (Ctrl=DMSO = 100) / TNFa (Ctrl=DMSO = 100): individual biopsies, fig 4f
Procedure: Colonic biopsies or tissues were obtained during endoscopy or via surgical resection from Crohn’s Disease (CD) or Ulcerative Colitis (UC) patients (St Bartholomew’s Hospital, London). All patients gave informed written consent. For surgical specimens, the mucosa was dissected away from the submucosa and cut into pieces of ~10–20 mg. […] The supernatants were collected for cytokine measurement as detailed in cytokines assay section while tissues were used to determine RIPK2 levels.
as §1

T2 sequence (G3V783 1-539): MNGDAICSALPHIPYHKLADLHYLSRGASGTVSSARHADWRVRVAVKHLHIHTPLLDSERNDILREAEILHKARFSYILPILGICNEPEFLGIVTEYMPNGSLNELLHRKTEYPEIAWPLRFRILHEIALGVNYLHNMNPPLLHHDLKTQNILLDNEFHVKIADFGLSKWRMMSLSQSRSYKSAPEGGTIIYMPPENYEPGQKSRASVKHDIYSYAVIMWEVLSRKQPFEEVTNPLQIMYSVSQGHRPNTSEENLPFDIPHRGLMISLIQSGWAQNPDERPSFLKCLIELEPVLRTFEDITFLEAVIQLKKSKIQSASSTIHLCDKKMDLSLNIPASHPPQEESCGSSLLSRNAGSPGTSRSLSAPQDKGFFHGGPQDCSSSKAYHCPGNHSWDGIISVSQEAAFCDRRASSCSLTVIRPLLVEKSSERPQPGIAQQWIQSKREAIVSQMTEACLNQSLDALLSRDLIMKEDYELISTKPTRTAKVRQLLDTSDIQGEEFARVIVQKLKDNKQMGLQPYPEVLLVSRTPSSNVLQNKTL
T1 sequence (P98170 whole entry): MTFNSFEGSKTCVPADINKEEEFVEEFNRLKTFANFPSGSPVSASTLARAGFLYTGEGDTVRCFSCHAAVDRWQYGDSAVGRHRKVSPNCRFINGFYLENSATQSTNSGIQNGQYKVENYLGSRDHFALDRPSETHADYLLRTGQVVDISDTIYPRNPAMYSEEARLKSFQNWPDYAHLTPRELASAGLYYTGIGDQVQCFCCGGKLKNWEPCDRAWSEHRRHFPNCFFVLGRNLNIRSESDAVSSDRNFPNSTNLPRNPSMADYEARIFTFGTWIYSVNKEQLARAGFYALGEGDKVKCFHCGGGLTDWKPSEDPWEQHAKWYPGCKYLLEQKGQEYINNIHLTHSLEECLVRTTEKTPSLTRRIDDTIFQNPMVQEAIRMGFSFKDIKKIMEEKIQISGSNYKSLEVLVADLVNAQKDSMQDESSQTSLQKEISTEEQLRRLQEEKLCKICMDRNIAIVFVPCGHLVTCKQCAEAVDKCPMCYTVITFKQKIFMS

Q: Which results are given for `CN[C@@H](C)C(=O)N[C@H](C(=O)N1C[C@@H](NC(=O)c2cnc(N3CCN(CCCOc4cc5ncnc(Nc6n[nH]c(C)c6C)c5cc4S(=O)(=O)C(C)(C)C)CC3)cn2)C[C@H]1C(=O)Nc1c(F)cccc1F)C(C)(C)C` [PROTAC 6]?
A: change in XIAP protein levels, in words [1]: no change in protein levels; cytokine level (fig 6g) ([2]; time 6 h): 8.69 and 8.02 and 5.35 and 6.46 and 7.8; cytokine level (fig 6i) ([2]; time 6 h): 31.46 and 23.18 and 30.08 and 19.04 and 32.01; cytokine level (fig 6h) ([2]; time 6 h): 3.67 and 4.23 and 2.54 and 4.43 and 8.37; cytokine level (fig 6g) ([2]; time 24 h): 4.03 and 4.53 and 7.05 and 7.3; cytokine level (fig 6i) ([2]; time 24 h): 16.22 and 17.82 and 19.15 and 9.84 and 7.71; cytokine level (fig 6h) ([2]; time 24 h): 8.38 and 32.32 and 14.19; cytokine level (fig 6g) ([2]; time 72 h): 28.89 and 34.42 and 15.25 and 46.36 and 44.94; cytokine level (fig 6i) ([2]; time 72 h): 33.56 and 43.62 and 27.96 and 81.66 and 38.4; cytokine level (fig 6h) ([2]; time 72 h): 48.27 and 55.56 and 29.21 and 61.98 and 48.03; cytokine level (fig 6g) ([2]; time 240 h): 191.84 and 104.55 and 3.3 and 94.35; cytokine level (fig 6i) ([2]; time 240 h): 85.43 and 111.93 and 35.63 and 31.07; cytokine level (fig 6h) ([2]; time 240 h): 84.17 and 74.27 and 51.45 and 69.43; cytokine level (fig 6g) ([2]; time 408 h): 87.06 and 148.63 and 32.92 and 94.97 and 44.56; cytokine level (fig 6i) ([2]; time 408 h): 82.16 and 113.16 and 73.99 and 122.46 and 42.47; cytokine level (fig 6h) ([2]; time 408 h): 89.41 and 138.46 and 73.92 and 116.87 and 57.61; release of TNFα and IL-8 in distal colon, in words ([2]; rat, 0.3 mg/kg SC, intravenous L18-MDP challenge): significantly inhibited for up to six days post-dose; RIPK2 level in colon (fig 5f) ([3]; 0.05 mg/kg, individual rats 1-4): 0.0091 and 0.0088 and 0.0071 and 0.0105; RIPK2 level in colon (fig 5f) ([3]; 0.5 mg/kg, individual rats 5-8): 0.0034 and 0.0025 and 0.0038 and 0.0043; RIPK2 in terminal colon samples, in words ([3]; rat, 0.05 and 0.5 mg/kg QD SC, Western blot): significant degradation of RIPK2; pIC50 ([4]; Homo sapiens, 24 h, read-out: IC50 inhibition of spontaneous cytokine release): 8.52 to 9.00; IL-1b (Ctrl=DMSO = 100) ([4]; compound concentration 0.05 nM): 133 and 73 and 55; IL-6 (Ctrl=DMSO = 100) ([4]; compound concentration 0.05 nM): 93 and 184 and 79 and 87 and 89 and 91; TNFa (Ctrl=DMSO = 100) ([4]; compound concentration 0.05 nM): 89 and 94 (2×) and 80 and 99; IL-1b (Ctrl=DMSO = 100) ([4]; compound concentration 0.5 nM): 74 and 22 and 52 and 46; IL-6 (Ctrl=DMSO = 100) ([4]; compound concentration 0.5 nM): 92 and 83 and 67 and 77 and 80 and 11 and 42; TNFa (Ctrl=DMSO = 100) ([4]; compound concentration 0.5 nM): 130 and 71 and 83 and 70 and 41 and 86; IL-1b (Ctrl=DMSO = 100) ([4]; compound concentration 5 nM): 49 and 88 and 62 (2×) and 28 and 58 and 77 and 41 and 55 and 30 and 27 (2×) and 11 and 37 and 67 and 54 and 44 and 40 and 39; IL-6 (Ctrl=DMSO = 100) ([4]; compound concentration 5 nM): 56 and 59 and 11 and 74 and 96 and 85 and 64 and 76 (2×) and 88 and 71 and 79 and 77 and 55 and 44 and 53 and 86 and 25 and 29; TNFa (Ctrl=DMSO = 100) ([4]; compound concentration 5 nM): 36 and 47 and 58 and 65 and 88 and 75 and 56 and 78 and 49 and 67 (2×) and 48 and 31 and 86 and 41 and 66 and 57; IL-1b (Ctrl=DMSO = 100) ([4]; compound concentration 50 nM): 38 and 22 and 12 (2×) and 95 and 26 and 24 and 43 and 15 and 68 and 21 and 1 and 23 and 39 and 18 and 7 and 11 and 34; IL-6 (Ctrl=DMSO = 100) ([4]; compound concentration 50 nM): 60 and 39 and 68 and 67 and 21 (2×) and 10 and 19 and 76 and 22 and 48 (2×) and 75 and 36 and 35 and 62 and 11 and 24; TNFa (Ctrl=DMSO = 100) ([4]; compound concentration 50 nM): 28 and 33 (2×) and 29 (2×) and 4 and 49 and 47 and 53 and 35 and 57 (2×) and 60 and 15 and 56 and 46 and 19 and 25 and 65
